In patent publication US20230085307A1, “PYRIDAZINONE COMPOUND AND HERBICIDE” (NISSAN CHEMICAL CORPORATION, priority 2019, published 2023):

Tests used:
redroot pigweed = assay: Test Example 4: herbicidal effect by soil treatment (Table 19, symbol N); assay type: in vivo, redroot pigweed (Amaranthus retroflexus); details: amount of applied herbicide 320 g/ha
In short: (§1)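 Herbicidal effect was rated 3 weeks after treatment, using the scoring criteria of an earlier test. The compound, formulated as an emulsion and diluted in water to a set herbicide amount, had been sprayed uniformly on soil over freshly sown seeds. Growth took place in a greenhouse at 25° C. to 30° C.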

Chinese sprangletop = assay: Test Example 3: herbicidal effect by foliage application, Wagner pot (Table 18, symbol D); assay type: in vivo, chinese sprangletop (Leptochloa chinensis)
In short: (§2)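 Plants were sown in alluvial soil held under 0.1–0.5 cm standing water and grown 14 days in a greenhouse at 25–30 °C. An emulsifiable formulation, water-diluted to the set dose, was then sprayed onto the foliage, and effects were scored three weeks later using previously defined criteria.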

blackgrass [1] = assay: Test Example 5: herbicidal effect by foliage application, plastic box (Table 20, symbol J); assay type: in vivo, blackgrass (Alopecurus myosuroides); details: foliage application, 320 g/ha, three weeks after application
In short: (§3)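 Foliar spray test: emulsion formulation diluted in water to a set application rate, sprayed onto 14-day-old plants raised in diluvial soil at 25° C to 30° C under glass. Both herbicidal effect and crop effect rated visually three weeks later.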

velvetleaf = assay: Test Example 5: herbicidal effect by foliage application, plastic box (Table 20, symbol M); assay type: in vivo, velvetleaf (Abutilon theophrasti); details: foliage application, 320 g/ha, three weeks after application
In short: as §3

false cleavers = assay: Test Example 5: herbicidal effect by foliage application, plastic box (Table 20, symbol Q); assay type: in vivo, false cleavers (Galium spurium); details: foliage application, 320 g/ha, three weeks after application
In short: as §3

Japanese bulrush = assay: Test Example 2: herbicidal activity, application during weed generation under submerged conditions (Table 17, symbol B); assay type: in vivo, Japanese bulrush (Schoenoplectus juncoides); details: AAH 320 g/ha; application during weed generation, submerged conditions
In short: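 Wagner pot, alluvial soil, 4 cm flood; mixed sowing of all species; greenhouse 25° C.–30° C. Emulsifiable formulation, water-diluted to predetermined dose, applied to paddy water at 1–2 leaf stage. Effect rated at 3 wk using the earlier test's scoring criteria.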

barnyard grass = assay: Test Example 5: herbicidal effect by foliage application, plastic box (Table 20, symbol H); assay type: in vivo, barnyard grass (Echinochloa crus-galli); details: foliage application, 320 g/ha, three weeks after application
In short: as §3

southern crabgrass [2] = assay: Test Example 4: herbicidal effect by soil treatment (Table 19, symbol F); assay type: in vivo, southern crabgrass (Digitaria ciliaris); details: amount of applied herbicide 320 g/ha
In short: as §1

wild oat [3] = assay: Test Example 4: herbicidal effect by soil treatment (Table 19, symbol I); assay type: in vivo, wild oat (Avena fatua); details: amount of applied herbicide 320 g/ha
In short: as §1

wild oat [4] = assay: Test Example 5: herbicidal effect by foliage application, plastic box (Table 20, symbol I); assay type: in vivo, wild oat (Avena fatua); details: foliage application, 320 g/ha, three weeks after application
In short: as §3

oval-leafed pondweed = assay: Test Example 1: herbicidal activity, application before weed generation under submerged conditions (Table 16, symbol C); assay type: in vivo, oval-leafed pondweed (Monochoria vaginalis); details: amount of applied herbicide 320 g/ha
In short: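 Submerged Wagner pots (alluvial soil, 4 cm water) sown with weed seeds and planted with 2.5-leaf rice seedlings; emulsifiable concentrate diluted in water applied to water surface on sowing day. Held in greenhouse at 25-30 °C; injury scored 0-5 by herbicidal rate after three weeks.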

rice flat sedge = assay: Test Example 3: herbicidal effect by foliage application, Wagner pot (Table 18, symbol E); assay type: in vivo, rice flat sedge (Cyperus iria)
In short: as §2

green foxtail = assay: Test Example 4: herbicidal effect by soil treatment (Table 19, symbol G); assay type: in vivo, green foxtail (Setaria viridis); details: amount of applied herbicide 320 g/ha
In short: as §1

Italian ryegrass = assay: Test Example 5: herbicidal effect by foliage application, plastic box (Table 20, symbol K); assay type: in vivo, Italian ryegrass (Lolium multiflorum); details: foliage application, 320 g/ha, three weeks after application
In short: as §3

lambsquarters = assay: Test Example 5: herbicidal effect by foliage application, plastic box (Table 20, symbol O); assay type: in vivo, lambsquarters (Chenopodium album); details: foliage application, 320 g/ha, three weeks after application
In short: as §3

blackgrass [5] = assay: Test Example 4: herbicidal effect by soil treatment (Table 19, symbol J); assay type: in vivo, blackgrass (Alopecurus myosuroides); details: amount of applied herbicide 320 g/ha
In short: as §1

southern crabgrass [6] = assay: Test Example 5: herbicidal effect by foliage application, plastic box (Table 20, symbol F); assay type: in vivo, southern crabgrass (Digitaria ciliaris); details: foliage application, 320 g/ha, three weeks after application
In short: as §3

[7] = amount of applied herbicide 320 g/ha

| SMILES | J: blackgrass, herbicidal effect grade (blackgrass [1]) | M: velvetleaf, herbicidal effect grade (velvetleaf) | Q: false cleavers, herbicidal effect grade (false cleavers) | herbicidal effect rating, B: Japanese bulrush (Japanese bulrush) | H: barnyard grass, herbicidal effect grade (barnyard grass) | I: wild oat, herbicidal effect grade (wild oat [4]) | Herbicidal effect, C: oval-leafed pondweed (oval-leafed pondweed) | K: Italian ryegrass, herbicidal effect grade (Italian ryegrass) | O: lambsquarters, herbicidal effect grade (lambsquarters) | F: southern crabgrass, herbicidal effect grade (southern crabgrass [6]) | also measured |
| --- | --- | --- | --- | --- | --- | --- | --- | --- | --- | --- | --- |
| CCOc1ccc2c(-c3c(O)c(C)nn(C)c3=O)c(-c3ccc(F)cc3OCC)sc2c1 [3-095] | 4 (Herbicidal rate of 70% or more and less than 90%) | 5 (Herbicidal rate of 90% or more (almost completely withered)) | 5 (Herbicidal rate of 90% or more (almost completely withered)) | 5 (Herbicidal rate of 90% or more (almost completely withered)) | 5 (Herbicidal rate of 90% or more (almost completely withered)) | 5 (Herbicidal rate of 90% or more (almost completely withered)) | 5 (Herbicidal rate of 90% or more (almost completely withered)) | 5 (Herbicidal rate of 90% or more (almost completely withered)) | 5 (Herbicidal rate of 90% or more (almost completely withered)) | 5 (Herbicidal rate of 90% or more (almost completely withered)) | N: redroot pigweed, herbicidal effect grade (redroot pigweed): 5 (Herbicidal rate of 90% or more (almost completely withered)); herbicidal effect on Chinese sprangletop (D) (Chinese sprangletop; 320 g/ha): 5 (Herbicidal rate of 90% or more (almost completely withered)); F: southern crabgrass, herbicidal effect grade (southern crabgrass [2]): 4 (Herbicidal rate of 70% or more and less than 90%); I: wild oat, herbicidal effect grade (wild oat [3]): 3 (Herbicidal rate of 40% or more and less than 70%); herbicidal effect on rice flat sedge (E) (rice flat sedge; 320 g/ha): 5 (Herbicidal rate of 90% or more (almost completely withered)); G: green foxtail, herbicidal effect grade (green foxtail): 5 (Herbicidal rate of 90% or more (almost completely withered)); J: blackgrass, herbicidal effect grade (blackgrass [5]): 4 (Herbicidal rate of 70% or more and less than 90%) |
| CCCC(=O)Oc1c(C)nn(C)c(=O)c1-c1c(-c2ccc(F)cc2)sc2cc(F)ccc12 [3-002] | 4 (Herbicidal rate of 70% or more and less than 90%) | 5 (Herbicidal rate of 90% or more (almost completely withered)) | 5 (Herbicidal rate of 90% or more (almost completely withered)) | 3 (Herbicidal rate of 40% or more and less than 70%) | 3 (Herbicidal rate of 40% or more and less than 70%) | 4 (Herbicidal rate of 70% or more and less than 90%) | 4 (Herbicidal rate of 70% or more and less than 90%) | 4 (Herbicidal rate of 70% or more and less than 90%) | 3 (Herbicidal rate of 40% or more and less than 70%) | 4 (Herbicidal rate of 70% or more and less than 90%) | herbicidal effect, N: redroot pigweed (redroot pigweed): 5 (Herbicidal rate of 90% or more (almost completely withered)); herbicidal effect on D: Chinese sprangletop (Chinese sprangletop; [7]): 0 (Herbicidal rate of 5% or less (almost no effect)); herbicidal effect, F: southern crabgrass (southern crabgrass [2]): 0 (Herbicidal rate of 5% or less (almost no effect)); herbicidal effect, I: wild oat (wild oat [3]): 3 (Herbicidal rate of 40% or more and less than 70%); herbicidal effect on E: rice flat sedge (rice flat sedge; [7]): 3 (Herbicidal rate of 40% or more and less than 70%); herbicidal effect, G: green foxtail (green foxtail): 0 (Herbicidal rate of 5% or less (almost no effect)); herbicidal effect, J: blackgrass (blackgrass [5]): 0 (Herbicidal rate of 5% or less (almost no effect)) |
